Read-outs that look alike come from different tables or passages of the source.
How the values were obtained:
Type in all cases: in vivo
corn (Zea mays) = assay: Test C pre/postemergence; conditions: for Corn plant response rating (crop injury, 0 = no effect, 100 = complete kill) at 62 g/ha / Corn plant response rating (crop injury, 0 = no effect, 100 = complete kill) at 125 g/ha / Corn plant response rating (crop injury, 0 = no effect, 100 = complete kill) at 250 g/ha / Corn plant response rating (crop injury, 0 = no effect, 100 = complete kill) at 500 g/ha: Zea mays; for Corn plant response rating (crop injury, 0 = no effect, 100 = complete kill) at 250 g/ha: 250 g ai/ha; for Corn plant response rating (crop injury, 0 = no effect, 100 = complete kill) at 500 g/ha: 500 g ai/ha
Outline: (§1)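 Test compounds, formulated in a non-phytotoxic solvent mix with surfactant, were applied to freshly planted seeds and, at the same time, to emerged plants at 1- to 4-leaf stage (2 to 18 cm). After 12 to 14 days in the greenhouse, response was scored visually versus controls, 0 = no effect, 100 = complete control.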

[1] = test system: morningglory (Ipomoea coccinea); assay: Test C pre/postemergence; conditions: for pest or weed control at 62 g/ha / pest or weed control at 125 g/ha / pest or weed control at 250 g/ha / pest or weed control at 500 g/ha: Ipomoea; for pest or weed control at 250 g/ha: 250 g ai/ha; for pest or weed control at 500 g/ha: 500 g ai/ha
Outline: as §1

[2] = test system: woolly cupgrass (Eriochloa villosa); assay: Test C pre/postemergence; conditions: for pest or weed control at 62 g/ha / pest or weed control at 125 g/ha / pest or weed control at 250 g/ha / pest or weed control at 500 g/ha: Eriochloa villosa; for pest or weed control at 250 g/ha: 250 g ai/ha; for pest or weed control at 500 g/ha: 500 g ai/ha
Outline: as §1

[3] = test system: barnyardgrass (Echinochloa crus-galli); assay: Test C flooded paddy test; conditions: Flood
Experimental: (§2) At the same time, plants selected from these crop and weed species and also winter barley (Hordeum vulgare), blackgrass (Alopecurus myosuroides), canarygrass (Phalaris minor), chickweed (Stellaria media), downy brome (Bromus tectorum), green foxtail (Setaria viridis), Italian ryegrass (Lolium multiflorum), wheat (Triticum aestivum), wild oat (Avena fatua) and windgrass (Apera spica-venti) were treated with postemergence applications of some of the test chemicals formulated in the same manner. Plants ranged in height from 2 to 18 cm (1- to 4-leaf stage) for postemergence treatments. Plant species in the flooded paddy test consisted of rice (Oryza sativa), umbrella sedge (Cyperus difformis), duck salad (Heteranthera limosa) and barnyardgrass (Echinochloa crus-galli) grown to the 2-leaf stage for testing. Treated plants and controls were maintained in a greenhouse for 12 to 14 days, after which time all species were compared to controls and visually evaluated. Plant response ratings, summarized in Table C, are based on a scale of 0 to 100 where 0 is no effect and 100 is complete control. A dash (-) response means no test result.

[4] = test system: duck salad (Heteranthera limosa); assay: Test C flooded paddy test; conditions: Flood, scale 0 to 100
Experimental: as §2

rice (Oryza sativa) = assay: Test C flooded paddy test; conditions: Flood, scale 0 to 100
Experimental: as §2

[5] = test system: umbrella sedge (Cyperus difformis); assay: Test C flooded paddy test; conditions: Flood, scale 0 to 100
Experimental: as §2

[6] = test system: ducksalad (Heteranthera limosa); assay: Test E flooded paddy water application; conditions: Flood, 21 days, scale 0 to 100 (0 no effect, 100 complete control)
Outline: (§3)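 Response scored visually on a 0–100 scale (100 = complete control) at 21 days against untreated pots. Treatment was into paddy water 3 cm deep over silt loam, with plants at the 2.0–2.5-leaf stage, grown under 16-h light at 29.5/26.7 °C day/night.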

[7] = test system: early watergrass (Echinochloa oryzoides); assay: Test E flooded paddy water application; conditions: Flood, 21 days, scale 0 to 100 (0 no effect, 100 complete control)
Outline: as §3

[8] = test system: junglerice (Echinochloa colona); assay: Test E flooded paddy water application; conditions: Flood, 21 days, scale 0 to 100 (0 no effect, 100 complete control)
Outline: as §3

[9] = test system: smallflower umbrella sedge (Cyperus difformis); assay: Test E flooded paddy water application; conditions: Flood, 21 days, scale 0 to 100 (0 no effect, 100 complete control)
Outline: as §3

[10] = test system: water seeded rice seedlings (Oryza sativa cv. ‘Japonica-M202’); assay: Test E flooded paddy water application; conditions: Flood, 21 days, scale 0 to 100 (0 no effect, 100 complete control)
Outline: as §3

[11] = post-emergence, Postemergence, scale 0 to 100
[12] = pre-emergence, Preemergence, scale 0 to 100
[13] = post-emergence, Postemergence, scale 0 to 100, read-out: Plant response rating, Morningglory
[14] = pre-emergence, Preemergence, scale 0 to 100, read-out: Plant response rating, Morningglory
[15] = post-emergence, Postemergence, scale 0 to 100, read-out: Plant response rating, Cupgrass, Woolly
[16] = pre-emergence, Preemergence, scale 0 to 100, read-out: Plant response rating, Cupgrass, Woolly
[17] = Postemergence, 125 g ai/ha, scale 0 to 100 (0 no effect, 100 complete control)

CNc1nc(C2CC2)nc(C(=O)OC)c1Br [Compound 5]
Corn plant response rating (crop injury, 0 = no effect, 100 = complete kill) at 62 g/ha (corn (Zea mays); post-emergence, Postemergence, 62 g ai/ha, scale 0 to 100 (0 no effect, 100 complete control), read-out: Corn plant response rating): 10% | Corn plant response rating (crop injury, 0 = no effect, 100 = complete kill) at 125 g/ha (corn (Zea mays); post-emergence, Postemergence, 125 g ai/ha, scale 0 to 100 (0 no effect, 100 complete control), read-out: Corn plant response rating): 40% | Corn plant response rating (crop injury, 0 = no effect, 100 = complete kill) at 250 g/ha (corn (Zea mays); [11]): 40% | Corn plant response rating (crop injury, 0 = no effect, 100 = complete kill) at 500 g/ha (corn (Zea mays); [11]): 45% | Corn plant response rating (crop injury, 0 = no effect, 100 = complete kill) at 62 g/ha (corn (Zea mays); pre-emergence, Preemergence, 62 g ai/ha, scale 0 to 100, 0 no effect, 100 complete control, read-out: Plant response rating, Corn): 5% | Corn plant response rating (crop injury, 0 = no effect, 100 = complete kill) at 125 g/ha (corn (Zea mays); pre-emergence, Preemergence, 125 g ai/ha, scale 0 to 100, read-out: Plant response rating, Corn): 5% | Corn plant response rating (crop injury, 0 = no effect, 100 = complete kill) at 250 g/ha (corn (Zea mays); [12]): 20% | Corn plant response rating (crop injury, 0 = no effect, 100 = complete kill) at 500 g/ha (corn (Zea mays); [12]): 50% | pest or weed control at 62 g/ha ([1]; post-emergence, Postemergence, 62 g ai/ha, scale 0 to 100 (0 no effect, 100 complete control), read-out: Morningglory plant response rating): 95% | pest or weed control at 125 g/ha ([1]; post-emergence, Postemergence, 125 g ai/ha, scale 0 to 100 (0 no effect, 100 complete control), read-out: Morningglory plant response rating): 95% | pest or weed control at 250 g/ha [1, 13]: 100% | pest or weed control at 500 g/ha [1, 13]: 100% | pest or weed control at 62 g/ha ([1]; pre-emergence, Preemergence, 62 g ai/ha, scale 0 to 100, 0 no effect, 100 complete control, read-out: Plant response rating, Morningglory): 50% | pest or weed control at 125 g/ha ([1]; pre-emergence, Preemergence, 125 g ai/ha, scale 0 to 100, read-out: Plant response rating, Morningglory): 80% | pest or weed control at 250 g/ha [1, 14]: 90% | pest or weed control at 500 g/ha [1, 14]: 100% | pest or weed control at 62 g/ha ([2]; post-emergence, Postemergence, 62 g ai/ha, scale 0 to 100 (0 no effect, 100 complete control), read-out: Cupgrass, Woolly plant response rating): 5% | pest or weed control at 125 g/ha ([2]; post-emergence, Postemergence, 125 g ai/ha, scale 0 to 100 (0 no effect, 100 complete control), read-out: Cupgrass, Woolly plant response rating): 50% | pest or weed control at 250 g/ha [2, 15]: 50% | pest or weed control at 500 g/ha [2, 15]: 70% | pest or weed control at 62 g/ha ([2]; pre-emergence, Preemergence, 62 g ai/ha, scale 0 to 100, 0 no effect, 100 complete control, read-out: Plant response rating, Cupgrass, Woolly): 0% | pest or weed control at 125 g/ha ([2]; pre-emergence, Preemergence, 125 g ai/ha, scale 0 to 100, read-out: Plant response rating, Cupgrass, Woolly): 0% | pest or weed control at 250 g/ha [2, 16]: 0% | pest or weed control at 500 g/ha [2, 16]: 0% | Plant response rating, Barnyardgrass ([3]; 62 g ai/ha, scale 0 to 100): 0 | Plant response rating, Barnyardgrass ([3]; 125 g ai/ha, scale 0 to 100): 0 | Plant response rating, Barnyardgrass ([3]; 250 g ai/ha, scale 0 to 100): 0 | Plant response rating, Barnyardgrass ([3]; 500 g ai/ha, scale 0 to 100 (0 no effect, 100 complete control)): 20 | Plant response rating, Ducksalad ([4]; 62 g ai/ha): 0 | Plant response rating, Ducksalad ([4]; 125 g ai/ha): 0 | Plant response rating, Ducksalad ([4]; 250 g ai/ha): 0 | Plant response rating, Ducksalad ([4]; 500 g ai/ha): 0 | Plant response rating, Rice (rice (Oryza sativa); 62 g ai/ha): 0 | Plant response rating, Rice (rice (Oryza sativa); 125 g ai/ha): 0 | Plant response rating, Rice (rice (Oryza sativa); 250 g ai/ha): 0 | Plant response rating, Rice (rice (Oryza sativa); 500 g ai/ha): 0 | Plant response rating, Sedge, Umbrella ([5]; 62 g ai/ha): 0 | Plant response rating, Sedge, Umbrella ([5]; 125 g ai/ha): 0 | Plant response rating, Sedge, Umbrella ([5]; 250 g ai/ha): 0 | Plant response rating, Sedge, Umbrella ([5]; 500 g ai/ha): 0

CCOC(=O)c1nc(-c2ccc(I)cc2)nc(N)c1Cl [Compound 133]
Plant response rating (scale of 0 to 100), Corn (corn (Zea mays); Postemergence, 16 g ai/ha): 35 | Plant response rating (scale of 0 to 100), Corn (corn (Zea mays); Postemergence, 31 g ai/ha): 40 | Plant response rating (scale of 0 to 100), Corn (corn (Zea mays); Postemergence, 62 g ai/ha): 60 | Corn plant response rating (corn (Zea mays); [17]): 80 | Plant response rating (scale of 0 to 100), Morningglory ([1]; Postemergence, 16 g ai/ha): 80 | Plant response rating (scale of 0 to 100), Morningglory ([1]; Postemergence, 31 g ai/ha): 90 | Plant response rating (scale of 0 to 100), Morningglory ([1]; Postemergence, 62 g ai/ha): 100 | Morningglory plant response rating [1, 17]: 100 | Plant response rating (scale of 0 to 100), Cupgrass, Woolly ([2]; Postemergence, 16 g ai/ha): 35 | Plant response rating (scale of 0 to 100), Cupgrass, Woolly ([2]; Postemergence, 31 g ai/ha): 50 | Plant response rating (scale of 0 to 100), Cupgrass, Woolly ([2]; Postemergence, 62 g ai/ha): 60 | Cupgrass, Woolly plant response rating [2, 17]: 70 | Ducksalad plant response rating ([6]; 32 g ai/ha): 100 | Ducksalad plant response rating ([6]; 64 g ai/ha): 100 | Ducksalad plant response rating ([6]; 125 g ai/ha): 100 | Ducksalad plant response rating ([6]; 250 g ai/ha): 100 | Plant response rating, Ducksalad ([6]; 16 g ai/ha): 100 | Watergrass, Early plant response rating ([7]; 64 g ai/ha): 0 | Watergrass, Early plant response rating ([7]; 125 g ai/ha): 0 | Watergrass, Early plant response rating ([7]; 250 g ai/ha): 0 | Plant response rating, Watergrass, Early ([7]; 16 g ai/ha): 0 | Plant response rating, Watergrass, Early ([7]; 32 g ai/ha): 0 | Junglerice plant response rating ([8]; 64 g ai/ha): 0 | Junglerice plant response rating ([8]; 125 g ai/ha): 0 | Junglerice plant response rating ([8]; 250 g ai/ha): 0 | Plant response rating, Junglerice ([8]; 16 g ai/ha): 0 | Plant response rating, Junglerice ([8]; 32 g ai/ha): 0 | Sedge, Umbrella plant response rating ([9]; 64 g ai/ha): 95 | Sedge, Umbrella plant response rating ([9]; 125 g ai/ha): 100 | Sedge, Umbrella plant response rating ([9]; 250 g ai/ha): 100 | Plant response rating, Sedge, Umbrella ([9]; 16 g ai/ha): 0 | Plant response rating, Sedge, Umbrella ([9]; 32 g ai/ha): 0 | Rice, Water Seeded plant response rating ([10]; 64 g ai/ha): 0 | Rice, Water Seeded plant response rating ([10]; 125 g ai/ha): 0 | Rice, Water Seeded plant response rating ([10]; 250 g ai/ha): 35 | Plant response rating, Rice, Water Seeded ([10]; 16 g ai/ha): 0 | Plant response rating, Rice, Water Seeded ([10]; 32 g ai/ha): 0
